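Growth conditions: 96-well plates. Treatment: test compound, 48 hours, 5 concentrations. Analysis: linear interpolation between bracketing concentrations; unreached endpoints set to highest concentration. GI50 is the concentration that inhibits growth by half.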 Activity calls are given as the source filed them. Cut-off read from the data, not from the text of the source: active = GI50 up to about 1.1 µM and inactive = higher.
Columns and labels:
Experiment in all cases: DTP human tumour cell line panel, 48 h
OVCAR-4 = test system: OVCAR-4
HL-60 = test system: HL-60
LXFL 529 = test system: LXFL 529
HOP-62 = test system: HOP-62
SF-295 = test system: SF-295
NCI-H522 = test system: NCI-H522
SK-OV-3 = test system: SK-OV-3
U-251 = test system: U-251
SN12C = test system: SN12C
M14 = test system: M14
CCRF-CEM = test system: CCRF-CEM
ACHN = test system: ACHN
HCT-116 = test system: HCT-116
HCT-15 = test system: HCT-15
UACC-62 = test system: UACC-62
DMS-114 = test system: DMS-114
CAKI-1 = test system: CAKI-1
SF-268 = test system: SF-268
DLD-1 = test system: DLD-1
OVCAR-5 = test system: OVCAR-5
EKVX = test system: EKVX
OVCAR-3 = test system: OVCAR-3
786-0 = test system: 786-0
SF-539 = test system: SF-539
SK-MEL-5 = test system: SK-MEL-5
SW-620 = test system: SW-620
TK-10 = test system: TK-10
COLO 205 = test system: COLO 205
RXF 393 = test system: RXF 393
HOP-92 = test system: HOP-92
SR = test system: SR
LOX IMVI = test system: LOX IMVI
NCI-H23 = test system: NCI-H23
RPMI-8226 = test system: RPMI-8226
A549 = test system: A549
SK-MEL-2 = test system: SK-MEL-2
SNB-78 = test system: SNB-78
HCC 2998 = test system: HCC 2998
KM12 = test system: KM12
M19-MEL = test system: M19-MEL
OVCAR-8 = test system: OVCAR-8
Malme-3M = test system: Malme-3M
SNB-19 = test system: SNB-19
SNB-75 = test system: SNB-75
DMS-273 = test system: DMS-273
HT-29 = test system: HT-29
SK-MEL-28 = test system: SK-MEL-28
UO-31 = test system: UO-31
NCI-H226 = test system: NCI-H226
NCI-H460 = test system: NCI-H460
IGROV-1 = test system: IGROV-1
K562 = test system: K562
KM-20L2 = test system: KM-20L2
HOP-18 = test system: HOP-18
A498 = test system: A498
MOLT-4 = test system: MOLT-4
UACC-257 = test system: UACC-257

Measured: GI50

CC1=COC(=O)c2ccccc2N1
inactive: OVCAR-4 > 100 µM | HL-60 > 100 µM | LXFL 529 > 100 µM | HOP-62 > 100 µM | SF-295 > 100 µM | NCI-H522 > 100 µM | SK-OV-3 > 100 µM | U-251 > 100 µM | SN12C > 100 µM | M14 > 100 µM | CCRF-CEM > 100 µM | ACHN > 100 µM | HCT-116 > 100 µM | UACC-62 > 100 µM | DMS-114 > 100 µM | CAKI-1 > 100 µM | SF-268 > 100 µM | DLD-1 > 100 µM | OVCAR-5 > 100 µM | EKVX > 100 µM | OVCAR-3 > 100 µM | 786-0 > 100 µM | SF-539 > 100 µM | SK-MEL-5 > 100 µM | SW-620 > 100 µM | TK-10 > 100 µM | COLO 205 > 100 µM | RXF 393 > 100 µM | HOP-92 > 100 µM | SR > 100 µM | LOX IMVI > 100 µM | NCI-H23 > 100 µM | RPMI-8226 > 100 µM | A549 > 100 µM | SK-MEL-2 > 100 µM | SNB-78 > 100 µM | HCC 2998 > 100 µM | KM12 > 100 µM | M19-MEL > 100 µM | OVCAR-8 > 100 µM | Malme-3M > 100 µM | SNB-19 > 100 µM | SNB-75 > 100 µM | DMS-273 > 100 µM | HT-29 > 100 µM | SK-MEL-28 > 100 µM | UO-31 > 100 µM | NCI-H226 > 100 µM | NCI-H460 > 100 µM | IGROV-1 > 100 µM | K562 > 100 µM | KM-20L2 > 100 µM
> 100 µM: HCT-15

CCOC(=O)CNC(=O)C(CSC(=O)N(C)O)NC(=O)CCC(N)C(=O)O (centres undefined)
inactive: HL-60 659 µM | SK-OV-3 684 µM | ACHN 653 µM | HCT-116 1.75 µM | OVCAR-5 436 µM | SW-620 > 1000 µM | TK-10 655 µM | RXF 393 498 µM | HOP-92 348 µM | RPMI-8226 908 µM | HOP-18 462 µM | SK-MEL-2 378 µM | SK-MEL-28 927 µM
active: CCRF-CEM 1.02 µM | DMS-114 0.968 µM | DLD-1 0.656 µM | COLO 205 0.735 µM | SR 0.644 µM | LOX IMVI 0.658 µM | DMS-273 0.75 µM | HT-29 0.891 µM
> 1000 µM: HCT-15

CCCCN(CC)C(=O)C(=O)C1C(=O)Nc2ccccc2[S+]1[O-] (centres undefined)
inactive: OVCAR-4 > 100 µM | LXFL 529 > 100 µM | HOP-62 > 100 µM | NCI-H522 > 100 µM | SK-OV-3 > 100 µM | U-251 > 100 µM | SN12C > 100 µM | M14 > 100 µM | CCRF-CEM > 100 µM | ACHN > 100 µM | HCT-116 > 100 µM | A498 > 100 µM | UACC-62 > 100 µM | DMS-114 > 100 µM | CAKI-1 > 100 µM | SF-268 > 100 µM | MOLT-4 > 100 µM | DLD-1 > 100 µM | OVCAR-5 > 100 µM | EKVX 55.6 µM | OVCAR-3 > 100 µM | 786-0 > 100 µM | SF-539 > 100 µM | SK-MEL-5 > 100 µM | SW-620 > 100 µM | TK-10 > 100 µM | COLO 205 > 100 µM | RXF 393 > 100 µM | HOP-92 > 100 µM | LOX IMVI > 100 µM | NCI-H23 > 100 µM | RPMI-8226 > 100 µM | A549 > 100 µM | HOP-18 > 100 µM | SK-MEL-2 > 100 µM | SNB-78 > 100 µM | UACC-257 > 100 µM | HCC 2998 > 100 µM | KM12 > 100 µM | M19-MEL > 100 µM | OVCAR-8 > 100 µM | Malme-3M > 100 µM | SNB-19 > 100 µM | SNB-75 > 100 µM | DMS-273 > 100 µM | HT-29 > 100 µM | SK-MEL-28 > 100 µM | UO-31 > 100 µM | NCI-H226 > 100 µM | NCI-H460 > 100 µM | IGROV-1 > 100 µM | K562 > 100 µM | KM-20L2 > 100 µM
> 100 µM: HCT-15

Reference: ChEMBL document CHEMBL1201862, “PubChem BioAssay data set” (2004)
